{"source": "paper PMC8761492", "about": "(Life Science Alliance, 2022)", "test_system": "SARS-CoV-2 B.1.1.7", "experiment": "microbe, parasite or virus in culture", "format": "cell-based", "conditions": "Severe acute respiratory syndrome coronavirus 2, Caco-2, pretreated 2 h, 24 h, mean ± SEM", "data": [{"compound": "CCC(CC)COC(=O)[C@H](C)N[P@](=O)(OC[C@H]1O[C@@](C#N)(c2ccc3c(N)ncnn23)[C@H](O)[C@@H]1O)Oc1ccccc1", "note": "[Remdesivir]", "values": [{"measurement": "IC50", "result": 0.023, "unit": "µM"}]}]}
